Bridge positions count the residues as written; N and C are the ends. Ends that are not written are not given here.
Experiments:
[1] = target: T1, human GPRC6A isoform 2 (Homo sapiens, UniProt Q5T6X5); assay: cAMP accumulation in HEK-293 cells transfected with human GPRC6A isoform 2; type: cell-based; conditions: isoform 2; Ocn 1.73-26.0 nM; 1 mM calcium; 40 min; Figure 2C
T1 construct: expressed in transfected cells; host or cells: HEK-293
T1 sequence (Q5T6X5 19-751 isoform Q5T6X5-2 limits assumed): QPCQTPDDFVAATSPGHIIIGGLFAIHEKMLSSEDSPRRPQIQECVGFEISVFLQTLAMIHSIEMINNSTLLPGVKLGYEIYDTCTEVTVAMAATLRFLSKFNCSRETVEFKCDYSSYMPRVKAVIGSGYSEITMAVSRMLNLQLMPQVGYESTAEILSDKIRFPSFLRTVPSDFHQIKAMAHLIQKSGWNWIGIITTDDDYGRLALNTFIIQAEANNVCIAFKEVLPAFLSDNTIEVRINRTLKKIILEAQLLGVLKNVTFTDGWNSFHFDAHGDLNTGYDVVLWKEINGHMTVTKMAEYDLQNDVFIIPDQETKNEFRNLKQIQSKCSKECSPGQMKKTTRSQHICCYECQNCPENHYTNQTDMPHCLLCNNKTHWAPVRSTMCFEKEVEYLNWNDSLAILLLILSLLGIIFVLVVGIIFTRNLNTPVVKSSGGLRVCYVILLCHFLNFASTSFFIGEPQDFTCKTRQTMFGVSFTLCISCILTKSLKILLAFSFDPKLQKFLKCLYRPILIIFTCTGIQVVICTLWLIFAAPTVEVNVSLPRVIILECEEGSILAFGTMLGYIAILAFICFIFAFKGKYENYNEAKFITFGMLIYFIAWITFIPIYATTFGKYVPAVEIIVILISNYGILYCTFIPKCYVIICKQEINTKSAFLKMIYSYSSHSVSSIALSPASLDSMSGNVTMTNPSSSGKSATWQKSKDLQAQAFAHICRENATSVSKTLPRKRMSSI
Procedure: HEK‐293 transfected with human GPRC6A isoform cDNA plasmids cells (10^5 cells/well)[30] were cultured in 24‐well plates in DMEM supplemented with 10% fetal bovine serum and 1% penicillin/streptomycin (100 U/mL of penicillin and 100 μg/mL of streptomycin) for 48 h followed by 4 h incubation in DMEM/F12 containing 0.1% BSA and 0.5 mM IBMX to achieve quiescence and preventing cAMP degradation. Quiescent cells were treated with vehicle control, various ligands at concentration as indicated for 40 min at 37°C. Then, the reaction was stopped, and the cells lysed with 0.5 mL 0.1 N HCl. cAMP levels were measured by using Cyclic AMP EIA kit (Cayman Chemical; Ann Arbor, MA, USA) following the manufacture's protocol.

[2] = target: T2, human GPRC6A isoform 3 (Homo sapiens, UniProt Q5T6X5); assay: ERK activation (ELISA) in HEK-293 cells transfected with human GPRC6A isoform 3; type: cell-based; conditions: Ocn 1.73-26.0 nM, 1 mM calcium, 15 min, Figure 2B
T2 construct: expressed in transfected cells; host or cells: HEK-293
T2 sequence (Q5T6X5 19-855 isoform Q5T6X5-3 limits assumed): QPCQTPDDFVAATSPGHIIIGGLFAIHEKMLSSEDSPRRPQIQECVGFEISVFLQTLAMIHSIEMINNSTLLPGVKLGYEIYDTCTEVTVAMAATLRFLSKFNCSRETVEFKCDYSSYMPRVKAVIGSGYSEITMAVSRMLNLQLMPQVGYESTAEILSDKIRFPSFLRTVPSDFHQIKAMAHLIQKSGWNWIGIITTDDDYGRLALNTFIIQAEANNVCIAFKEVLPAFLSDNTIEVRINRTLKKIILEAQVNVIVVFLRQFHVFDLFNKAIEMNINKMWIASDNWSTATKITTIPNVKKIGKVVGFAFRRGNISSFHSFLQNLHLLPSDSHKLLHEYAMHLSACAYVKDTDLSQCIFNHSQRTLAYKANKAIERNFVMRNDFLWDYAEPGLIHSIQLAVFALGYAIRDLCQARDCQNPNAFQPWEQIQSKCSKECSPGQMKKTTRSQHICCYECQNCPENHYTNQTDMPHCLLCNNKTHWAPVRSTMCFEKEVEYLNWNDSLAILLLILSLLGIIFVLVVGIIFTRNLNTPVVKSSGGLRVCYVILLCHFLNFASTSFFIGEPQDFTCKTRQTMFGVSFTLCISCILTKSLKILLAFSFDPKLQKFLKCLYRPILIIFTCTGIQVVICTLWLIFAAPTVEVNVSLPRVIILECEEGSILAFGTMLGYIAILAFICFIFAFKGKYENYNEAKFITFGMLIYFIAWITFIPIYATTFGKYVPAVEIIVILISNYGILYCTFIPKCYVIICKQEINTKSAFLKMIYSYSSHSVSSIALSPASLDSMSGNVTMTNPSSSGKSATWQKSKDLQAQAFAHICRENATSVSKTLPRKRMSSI
Procedure: All culture reagents were from Invitrogen (Waltham, MA, USA). Human embryonic kidney HEK‐293 cells were obtained from American Type Culture Collection and cultured in DMEM medium supplemented with 10% fetal bovine serum and 1% Penicillin/Streptomycin (P/S). Briefly, HEK‐293 cells transfected with/without human GPRC6A isoforms cDNA plasmids were starved by overnight incubation in serum‐free DMEM/F12 containing 0.1% bovine serum albumin (BSA) and stimulated with various ligands at different doses. […]

[3] = tested on: wild‐type (Gprc6a +/+) and global knock out (Gprc6a −/−) mice; assay: Blood glucose after intraperitoneal injection in mice; type: in vivo, mouse; conditions: 2 nmol/g intraperitoneal, 24 h, n ≥ 5
Procedure: (§1) 8‐week‐old wild‐type (Gprc6a ^ +/+ ) and global knock out (Gprc6a ^ −/− ) mice were injected intraperitoneally with Ocn 20–29 (2 nmol/g body weight), or vehicle (saline; 10 μL/g body weight). Serum was collected at 24 h after intraperitoneal injection. Blood glucose levels were measured by using blood glucose strips and the Accu‐Check glucometer as described.[7], [31] A mouse IL‐6 ELISA Kit was purchased from Invitrogen (Waltham, MA, USA). Rat/Mouse FGF‐21ELISA Kit was obtained from Millipore Sigma (Burlington, MA, USA).
(§2) The Gprc6a ^ −/− mouse model was created by replacing exon 2 of the GPRC6A gene with the hygromycin resistance gene, as described previously.[32] Mice were maintained and used in accordance with recommendations as described (National Research Council 1985; Guide for the Care and Use of Laboratory Animals Department of Health and Human Services Publication NIH 86–23, Institute on Laboratory Animal Resources, Rockville, MD) and following guidelines established by the University of Tennessee Health Science Center Institutional Animal Care and Use Committee. The animal study protocol was approved by the institutional review boards at University of Tennessee Health Science Center Institutional Animal Care and Use Committee.

[4] = tested on: wild‐type (Gprc6a +/+) and global knock out (Gprc6a −/−) mice; assay: Serum IL-6 (ELISA) after intraperitoneal injection in mice; type: in vivo, mouse; conditions: 2 nmol/g IP, 24 h, n ≥ 5
Procedure: as §1, §2

[5] = tested on: wild‐type (Gprc6a +/+) and global knock out (Gprc6a −/−) mice; assay: Serum FGF-21 (ELISA) after intraperitoneal injection in mice; type: in vivo, mouse; conditions: 2 nmol/g IP, 24 h, n ≥ 5
Procedure: as §1, §2

Row | Substance | Ocn-induced cAMP accumulation, dose response [1] | Ocn-induced ERK activation, dose response [2] | Blood glucose response ([3]; Gprc6a −/− mice) | Reduction of blood glucose levels ([3]; wild-type Gprc6a +/+ mice, 8 weeks old, single injection, vehicle saline had no effect) | Serum IL-6 response ([4]; Gprc6a −/− mice) | Serum IL-6 level versus vehicle ([4]; wild-type Gprc6a +/+ mice) | Serum FGF-21 response ([5]; Gprc6a −/− mice) | Serum FGF-21 level versus vehicle ([5]; wild-type Gprc6a +/+ mice)
1 | osteocalcin (YLYQWLGAPVPYPDPLEPRREVCELNPDCDELADHIGFQEAYRRFYGPV; not fully specified; ends and bridges not checked; UniProt P02818 52-100, looked up) [Ocn 1–49, full human Ocn (49 aa) synthesized by BioMatik; methods also describe decarboxylated Ocn purified from bovine tibial bone, reference compound] | complete loss of cAMP activation | attenuation of Ocn‐induced ERK stimulation |  |  |  |  |  | 
2 | REVCELNPDC (disulfide 4-10 (inferred)) [Ocn 20–29, synthesized human Ocn decapeptide fragment located in the middle of the protein] |  |  | lost | ~ 10% | lost | significant increase | lost | significant increase
